Measurements reported in US9908859B2, “Lysine demethylase inhibitors for myeloproliferative disorders” (Oryzon Genomics S.A., priority 2011, dated 2018).

What was measured:
platelets = assay: Platelet levels in mice after 5 consecutive once daily injections; format: in vivo, mice (Hsd:Athymic Nude-Foxn1nu); settings: 60 min after last dose
Experimental: On the fifth day, 60 min after the administration, mice were sacrificed and blood was collected in sodium citrate-containing tubes for haemogram analysis. Platelet levels were determined and referred as % of platelets compared with the levels found in mice treated with vehicle. Platelet levels were determined in a standard hematology analyzer (Abacus Junior Vet, from Diatron) following the manufacturer's instructions.
20% 2-hydroxypropyl-β-cyclodextrin in H2O was used as a vehicle. When necessary, 10% DMSO was also added in the vehicle. Each day, compounds were administered in a single intraperitoneal injection with administration volumes of 15 ml/kg.
Mice strain was Hsd:Athymic Nude-Foxn1nu. Animals were maintained in air and temperature controlled cages with regular supply of water and food.

LSD1 = LSD1 (Homo sapiens, UniProt O60341); assay: LSD1 demethylase inhibition, Amplex Red peroxide/peroxidase-coupled assay with di-methylated H3-K4 peptide; format: biochemical; set-up: purchased BPS Bioscience Inc
From the text: Compounds for use in the methods of the invention can be identified by their ability to inhibit LSD1. The ability of the compounds of the invention to inhibit LSD1 can be tested as follows. Human recombinant LSD1 protein was purchased from BPS Bioscience Inc. In order to monitor LSD1 enzymatic activity and/or its inhibition rate by our inhibitor(s) of interest, di-methylated H3-K4 peptide (Millipore) was chosen as a substrate. The demethylase activity was estimated, under aerobic conditions, by measuring the release of H2O2 produced during the catalytic process, using the Amplex® Red peroxide/peroxidase-coupled assay kit (Invitrogen).
Within the experiment, each concentration of inhibitor was tested in triplicate. […] The enzymatic reactions were set up in a 50 mM sodium phosphate, pH 7.4 buffer. […] The conversion of the Amplex® Red reagent to resorufin due to the presence of H2O2 in the assay, was monitored by fluorescence (excitation at 540 nm, emission at 590 nm) using a microplate reader (Infinite 200, Tecan). […]
The maximum demethylase activity of LSD1 was obtained in the absence of inhibitor and corrected for background fluorescence in the absence of LSD1. […]

[1] = molecular target: T1, Human recombinant monoamine oxidase MAO-A (Homo sapiens, UniProt P21397); assay: MAO-A inhibition, kynuramine fluorescence assay; format: biochemical
T1 construct: purchased Sigma Aldrich
T1 sequence (P21397 1-527): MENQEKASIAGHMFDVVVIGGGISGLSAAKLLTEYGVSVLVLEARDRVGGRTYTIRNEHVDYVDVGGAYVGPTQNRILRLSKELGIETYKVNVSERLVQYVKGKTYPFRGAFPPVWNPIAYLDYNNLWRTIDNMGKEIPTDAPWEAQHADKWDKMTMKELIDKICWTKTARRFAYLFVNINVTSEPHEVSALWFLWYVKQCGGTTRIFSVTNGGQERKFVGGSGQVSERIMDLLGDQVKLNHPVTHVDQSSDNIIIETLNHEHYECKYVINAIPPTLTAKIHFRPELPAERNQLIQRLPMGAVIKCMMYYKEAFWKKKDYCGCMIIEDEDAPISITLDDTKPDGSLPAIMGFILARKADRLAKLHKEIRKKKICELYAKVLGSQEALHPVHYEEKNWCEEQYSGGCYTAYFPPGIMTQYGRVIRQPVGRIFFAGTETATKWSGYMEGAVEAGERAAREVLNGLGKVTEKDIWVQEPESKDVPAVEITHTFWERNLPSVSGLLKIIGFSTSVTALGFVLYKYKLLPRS
From the text: (§1) Human recombinant monoamine oxidase proteins MAO-A and MAO-B were purchased from Sigma Aldrich. MAOs catalyze the oxidative deamination of primary, secondary and tertiary amines. In order to monitor MAO enzymatic activities and/or their inhibition rate by inhibitor(s) of interest, a fluorescent-based (inhibitor)-screening assay was set up. 3-(2-Aminophenyl)-3-oxopropanamine (kynuramine dihydrobromide, Sigma Aldrich), a non fluorescent compound was chosen as a substrate. Kynuramine is a non-specific substrate for both MAOs activities. While undergoing oxidative deamination by MAO activities, kynuramine is converted into 4-hydroxyquinoline (4-HQ), a resulting fluorescent product.
(§2) The monoamine oxidase activity was estimated by measuring the conversion of kynuramine into 4-hydroxyquinoline. […]
(§3) After leaving the enzyme(s) interacting with the inhibitor, 60 to 90 μM of kynuramine was added to each reaction for MAO-B and MAO-A assay respectively, and the reaction was left for 1 hour at 37° C. in the dark. […] The conversion of kynuramine to 4-hydroxyquinoline, was monitored by fluorescence (excitation at 320 nm, emission at 360 nm) using a microplate reader (Infinite 200, Tecan). Arbitrary units were used to measure levels of fluorescence produced in the absence and/or in the presence of inhibitor.
(§4) The Ki (IC50) of each inhibitor was determined at Vmax/2.

[2] = tested on: H3K4 methylation in SH-SY5Y cells; assay: Western blot for dimethylated H3-K4 in SH-SY5Y cells; format: cell-based
From the text: B-actin was used as a loading control.

[3] = molecular target: T2, Human recombinant monoamine oxidase MAO-B (Homo sapiens, UniProt P27338); assay: MAO-B inhibition, kynuramine fluorescence assay; format: biochemical
T2 construct: purchased Sigma Aldrich
T2 sequence (P27338 1-520): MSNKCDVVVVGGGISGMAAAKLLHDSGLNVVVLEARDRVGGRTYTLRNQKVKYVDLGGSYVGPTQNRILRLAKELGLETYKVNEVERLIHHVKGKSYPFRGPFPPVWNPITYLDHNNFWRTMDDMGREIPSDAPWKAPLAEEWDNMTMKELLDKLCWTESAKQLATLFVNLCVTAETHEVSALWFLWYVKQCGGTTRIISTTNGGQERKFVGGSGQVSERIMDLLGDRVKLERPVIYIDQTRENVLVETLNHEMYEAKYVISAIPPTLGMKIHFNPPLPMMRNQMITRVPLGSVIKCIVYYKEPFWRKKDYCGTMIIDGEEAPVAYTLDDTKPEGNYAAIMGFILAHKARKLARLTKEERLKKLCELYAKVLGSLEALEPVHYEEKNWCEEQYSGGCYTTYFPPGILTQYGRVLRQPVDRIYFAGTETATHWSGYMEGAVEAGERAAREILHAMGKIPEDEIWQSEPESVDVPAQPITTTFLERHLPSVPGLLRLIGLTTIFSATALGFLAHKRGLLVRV
From the text: as §1, §2, §3, §4

[4] = 10 mg/kg i.p. once daily x 5 days
[5] = 20 mg/kg i.p. once daily x 5 days
[6] = 40 mg/kg i.p. once daily x 5 days

IC50 (LSD1) [µM] | IC50 [1] [µM] | SMILES | % platelet vs. Vehicle (platelets; [4]) [%] | % platelet vs. Vehicle (platelets; [5]) [%] | % platelet vs. Vehicle (platelets; [6]) [%] | further results
– | – | CN1CCN(C(=O)CN[C@H]2C[C@@H]2c2ccc(OCc3ccccc3)cc2)CC1 (racemic) [Compound 3] | 5 | – | – | % platelet vs. Vehicle (platelets; 1 mg/kg i.p. once daily x 5 days): 46%; % platelet vs. Vehicle (platelets; 3 mg/kg i.p. once daily x 5 days): 16%
< 0.2 | > 2 | NC(=O)CN[C@@H]1C[C@H]1c1ccc(OCc2ccccc2)cc1 (relative stereo) [Compound 1] | 66 | 55 | 34 | H3K4 methylation (western blot) ([2]; SH-SY5Y cells grown with compound for 1, 2 and 3 days, Dual-1 at 100 μM (FIG. 3)): increases H3K4 methylation in cells in a time dependent manner; potency at increasing global dimethylated H3K4 levels as compared to tranylcypromine ([2]; SH-SY5Y cells, 1, 2 and 3 days): ≥ 10 fold; % platelet vs. Vehicle (platelets; 5 mg/kg i.p. once daily x 5 days): 91%
< 0.2 | > 0.5 | N[C@H]1CCN(CCN[C@H]2C[C@@H]2c2ccc(-c3cccc(C(F)(F)F)c3)cc2)C1 [Compound 5] | – | – | – | IC50 [3]: > 1 µM
– | – | N[C@H]1CC1c1ccc(-c2cccc(O)c2)cc1 (stereo partly shown) [Compound 6] | – | – | – | % platelet vs. Vehicle (platelets; 17 mg/kg i.p. once daily x 5 days): 56%; % platelet vs. Vehicle (platelets; 34 mg/kg i.p. once daily x 5 days): 46%; % platelet vs. Vehicle (platelets; 52 mg/kg i.p. once daily x 5 days): 63%
– | – | CS(=O)(=O)Nc1cccc(-c2ccc(C3C[C@@H]3N)cn2)c1 (stereo partly shown) [Compound 7] | – | 68 | 44 | –
